One compound from US20250367185A1, “TRANSLESION SYNTHESIS POLYMERASE INHIBITORS AND USES THEREOF” (THE UNIVERSITY OF VERMONT AND STATE AGRICULTURAL COLLEGE, priority 2022, published 2025) can be followed below.

The test deals with HPRT (hypoxanthine phosphoribosyltransferase) gene in A549-ACE2+ cells infected with SARS-COV-2. The experiment in a line: HPRT mutagenesis in SARS-COV-2 infected cells. The class given is cell-based.

As to `CC(C)CC(=O)c1c(Nc2ccc(C(=O)O)cc2Cl)[nH]c2c(Cl)ccc([N+](=O)[O-])c2c1=O` [Compound 1, 3-chloro-4-((8-chloro-3-(3-methylbutanoyl)-5-nitro-4-oxo-1,4-dihydroquinolin-2-yl)amino)benzoic acid], the “SARS-COV-2-dependent HPRT mutagenesis” value is recorded as “suppress”.
